Reference: PubChem BioAssay AID1963440 (Molecular Pharmacology Branch, DTP, NCI, 2024)
Values joined by “and” are separate entries in the source; they are usually repeats but may differ in a detail not shown here. Equal values may be shown once.

Test system: NCI-H1417 complex spheroids, growth % test/control
Test: Anticancer human tumor NCI-H1417 cell line growth inhibition [Asc];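 further: spheroids exposed to compounds for 7 days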;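 on viability, T/C: 100% = DMSO vehicle control wells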
Settings: for viability, T/C: stronger effect = lower value; active means viability on the fitted dose curve at most 10% of control; inactive means the rest
Summary of the method: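 Complex spheroids combining tumor cells with HUVEC endothelial cells and human MSCs, at 37 degrees C, 5% CO2; agents tested alone or combined, half-log dilutions from at or near clinical Cmax, or 10 microM if Cmax unknown.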

[1] = curve of first compound, second compound 0.1 µM
[2] = curve of first compound, second compound 0.316 µM
[3] = curve of first compound, second compound 1 µM
[4] = second compound 0.1 µM, first compound 0.00316 µM
[5] = second compound 0.1 µM, first compound 0.01 µM
[6] = second compound 0.1 µM, first compound 0.0316 µM
[7] = second compound 0.1 µM, first compound 0.1 µM
[8] = second compound 0.316 µM, first compound 0.00316 µM
[9] = second compound 0.316 µM, first compound 0.01 µM
[10] = second compound 0.316 µM, first compound 0.0316 µM
[11] = second compound 0.316 µM, first compound 0.1 µM
[12] = second compound 1 µM, first compound 0.00316 µM
[13] = second compound 1 µM, first compound 0.01 µM
[14] = second compound 1 µM, first compound 0.0316 µM
[15] = second compound 1 µM, first compound 0.1 µM
[16] = curve of first compound, second compound 0.01 µM
[17] = curve of first compound, second compound 0.0316 µM
[18] = second compound 0.01 µM, first compound 0.0316 µM
[19] = second compound 0.01 µM, first compound 0.1 µM
[20] = second compound 0.01 µM, first compound 0.316 µM
[21] = second compound 0.01 µM, first compound 1 µM
[22] = second compound 0.0316 µM, first compound 0.0316 µM
[23] = second compound 0.0316 µM, first compound 0.1 µM
[24] = second compound 0.0316 µM, first compound 0.316 µM
[25] = second compound 0.0316 µM, first compound 1 µM
[26] = second compound 0.1 µM, first compound 0.316 µM
[27] = second compound 0.1 µM, first compound 1 µM
[28] = second compound 0.316 µM, first compound 0.316 µM
[29] = second compound 0.316 µM, first compound 1 µM
[30] = second compound 1 µM, first compound 0.316 µM
[31] = second compound 1 µM, first compound 1 µM

Cn1ncnc1[C@H]1c2n[nH]c(=O)c3cc(F)cc(c23)N[C@@H]1c1ccc(F)cc1 + Cc1c(S(C)(=O)=O)c(-c2cc(F)cc(N3CCN(c4ccc(NS(=O)(=O)c5ccc(NC(CCN6CCC(C(=O)OCCCP(=O)(O)O)CC6)CSc6ccccc6)c(S(=O)(=O)C(F)(F)F)c5)cc4)CC3)c2)c(-c2ccc(Cl)cc2)n1C(C)C
3.84 nM: IC50 [1]
< 0.316 nM: IC50 [2] | IC50 [3] | IC50 (curve of first compound, second compound 3.16 µM) | IC50 (curve of first compound, second compound 10 µM)
active: viability, T/C [6] 8.37% | viability, T/C [7] 5.48% | viability, T/C [9] 5.82% | viability, T/C [10] 3.42% | viability, T/C [11] 3.86% | viability, T/C (second compound 1 µM, first compound 0.001 µM) 10.4% | viability, T/C [12] 6.37% | viability, T/C [13] 3.13% | viability, T/C [14] 2.7% | viability, T/C [15] 3.15% | viability, T/C (second compound 3.16 µM, first compound 0.000316 µM) 3.13% | viability, T/C (second compound 3.16 µM, first compound 0.001 µM) 2.74% | viability, T/C (second compound 3.16 µM, first compound 0.00316 µM) 2.64% | viability, T/C (second compound 3.16 µM, first compound 0.01 µM) 2.34% | viability, T/C (second compound 3.16 µM, first compound 0.0316 µM) 3.42% | viability, T/C (second compound 3.16 µM, first compound 0.1 µM) 2.69% | viability, T/C (second compound 10 µM, first compound 0.000316 µM) 2.53% | viability, T/C (second compound 10 µM, first compound 0.001 µM) 2.63% | viability, T/C (second compound 10 µM, first compound 0.00316 µM) 2.54% | viability, T/C (second compound 10 µM, first compound 0.01 µM) 2.98% | viability, T/C (second compound 10 µM, first compound 0.0316 µM) 3.14% | viability, T/C (second compound 10 µM, first compound 0.1 µM) 2.76%
inactive: viability, T/C (second compound 0.1 µM, first compound 0.000316 µM) 85.9% | viability, T/C (second compound 0.1 µM, first compound 0.001 µM) 83.2% | viability, T/C [4] 54.8% | viability, T/C [5] 21.9% | viability, T/C (second compound 0.316 µM, first compound 0.000316 µM) 46.7% | viability, T/C (second compound 0.316 µM, first compound 0.001 µM) 42.7% | viability, T/C [8] 31.7% | viability, T/C (second compound 1 µM, first compound 0.000316 µM) 12.5%

CCN1C(C(=O)NC23CCC(C(=O)O)(CC2)CC3)C(c2cccc(Cl)c2F)C2(C(=O)Nc3cc(Cl)ccc32)C12CCCCC2 (configuration not stated)
> 3000 nM: IC50 (compound alone, run of 10/11/2022) | IC50 (curve of compound)
inactive: viability, T/C (compound 0.00949 µM) 102% and 109% | viability, T/C (compound 0.03 µM) 102% [middle of 15 runs] | viability, T/C (compound 0.0949 µM) 101% [middle of 15 runs] | viability, T/C (compound 0.3 µM) 97.9% [middle of 15 runs] | viability, T/C (compound 3 µM) 93.4% [middle of 15 runs]

C=CC(=O)N1CCN(c2nc(=O)n(-c3c(C)ccnc3C(C)C)c3nc(-c4c(O)cccc4F)c(F)cc23)C(C)C1 (configuration not stated) + CNC(C)C(=O)NC1CN(S(=O)(=O)c2cccc(S(=O)(=O)N3CCC4CCC(C(=O)NC(c5ccccc5)c5ccccc5)N4C(=O)C(NC(=O)C(C)NC)C3)c2)CCC2CCC(C(=O)NC(c3ccccc3)c3ccccc3)N2C1=O
inactive: viability, T/C [18] 94% | viability, T/C [19] 90% | viability, T/C [20] 97.6% | viability, T/C [21] 96.2% | viability, T/C (second compound 0.01 µM, first compound 3.16 µM) 102% | viability, T/C (second compound 0.01 µM, first compound 10 µM) 103% | viability, T/C [22] 88.1% | viability, T/C [23] 99.8% | viability, T/C [24] 89.9% | viability, T/C [25] 94.4% | viability, T/C (second compound 0.0316 µM, first compound 3.16 µM) 97.6% | viability, T/C (second compound 0.0316 µM, first compound 10 µM) 87.8% | viability, T/C [6] 99.3% | viability, T/C [7] 87.5% | viability, T/C [26] 96.7% | viability, T/C [27] 96.9% | viability, T/C (second compound 0.1 µM, first compound 3.16 µM) 92% | viability, T/C (second compound 0.1 µM, first compound 10 µM) 88.2% | viability, T/C [10] 84.6% | viability, T/C [11] 94.3% | viability, T/C [28] 94.6% | viability, T/C [29] 92.5% | viability, T/C (second compound 0.316 µM, first compound 3.16 µM) 93.8% | viability, T/C (second compound 0.316 µM, first compound 10 µM) 86.2% | viability, T/C [14] 90.9% | viability, T/C [15] 101% | viability, T/C [30] 89.4% | viability, T/C [31] 90.2% | viability, T/C (second compound 1 µM, first compound 3.16 µM) 104% | viability, T/C (second compound 1 µM, first compound 10 µM) 93.3%
> 10000 nM: IC50 [16] | IC50 [17] | IC50 [1] | IC50 [2] | IC50 [3]

O=C(c1ccc(F)c(F)c1Nc1ccc(I)cc1F)N1CC(O)([C@@H]2CCCCN2)C1 + CNC(C)C(=O)NC1CN(S(=O)(=O)c2cccc(S(=O)(=O)N3CCC4CCC(C(=O)NC(c5ccccc5)c5ccccc5)N4C(=O)C(NC(=O)C(C)NC)C3)c2)CCC2CCC(C(=O)NC(c3ccccc3)c3ccccc3)N2C1=O
inactive: viability, T/C (second compound 0.01 µM, first compound 0.00316 µM) 107% | viability, T/C (second compound 0.01 µM, first compound 0.01 µM) 102% | viability, T/C [18] 95% | viability, T/C [19] 103% | viability, T/C [20] 99.5% | viability, T/C [21] 85.3% | viability, T/C (second compound 0.0316 µM, first compound 0.00316 µM) 107% | viability, T/C (second compound 0.0316 µM, first compound 0.01 µM) 96.6% | viability, T/C [22] 92.7% | viability, T/C [23] 102% | viability, T/C [24] 96.7% | viability, T/C [25] 103% | viability, T/C [4] 101% | viability, T/C [5] 90.8% | viability, T/C [6] 95.3% | viability, T/C [7] 98.4% | viability, T/C [26] 99.4% | viability, T/C [27] 91.2% | viability, T/C [8] 88.6% | viability, T/C [9] 104% | viability, T/C [10] 110% | viability, T/C [11] 90.9% | viability, T/C [28] 105% | viability, T/C [29] 101% | viability, T/C [12] 88% | viability, T/C [13] 93.8% | viability, T/C [14] 82.8% | viability, T/C [15] 95.8% | viability, T/C [30] 91.4% | viability, T/C [31] 102%
> 1000 nM: IC50 [16] | IC50 [17] | IC50 [1] | IC50 [2] | IC50 [3]
